{"source": "patent US10562909B2", "about": "“Fused quadracyclic compounds, compositions and uses thereof” (Tabomedex Biosciences, LLC, priority 2016, dated 2020)"}
{"target": "MAPKAPK2 (Homo sapiens, UniProt P49137)", "sequence (P49137 whole entry, species assumed)": "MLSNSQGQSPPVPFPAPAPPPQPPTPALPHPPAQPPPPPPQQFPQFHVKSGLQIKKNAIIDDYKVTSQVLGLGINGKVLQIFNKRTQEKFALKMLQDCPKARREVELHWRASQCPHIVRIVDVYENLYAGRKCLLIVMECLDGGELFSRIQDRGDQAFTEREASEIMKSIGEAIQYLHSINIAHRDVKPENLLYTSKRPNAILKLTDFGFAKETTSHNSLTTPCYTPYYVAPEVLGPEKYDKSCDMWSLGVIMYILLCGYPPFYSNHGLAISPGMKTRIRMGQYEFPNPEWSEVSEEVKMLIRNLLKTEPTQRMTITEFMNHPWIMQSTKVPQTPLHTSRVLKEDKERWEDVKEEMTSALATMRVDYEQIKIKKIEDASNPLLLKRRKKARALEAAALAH", "experiment": "MK2 Enzymatic Assay", "type": "biochemical", "conditions": "0.5 nM MAPKAPK2, 3 μM ATP, 2 μM Ser/Thr4 peptide, 23° C., values given as concentration bins", "summary_of_the_method": "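Percent phosphorylation was derived from coumarin and fluorescein emissions relative to 0% and 100% phospho-peptide controls, read after a 120 min development step. Reactions used 2× stocks of 1 nM kinase, 4 μM peptide and 6 μM ATP; enzyme and peptide sat 20 min before a 120 min ATP reaction.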", "units": {"IC50": "nM"}}
{"smiles": "CN(C)C1CN(c2ccc3c(c2)Cn2cc(-c4ccc(C#N)cc4)cc2-c2nnnn2-3)C1", "note": "[Compound 235, 4-(7-(3-(dimethylamino)azetidin-1-yl)-9H-benzo[e]pyrrolo[1,2-a]tetrazolo[5,1-c][1,4]diazepin-12-yl)benzonitrile]", "IC50": "100 to 200"}
{"smiles": "CN(C)[C@H]1CCN(c2ccc3c(c2)Cn2cc(-c4ccc(F)cc4)cc2-c2ncnn2-3)C1", "note": "[Compound 427, (S)-1-(12-(4-fluorophenyl)-9H-benzo[e]pyrrolo[1,2-a][1,2,4]triazolo[5,1-c][1,4]diazepin-7-yl)-N,N-dimethylpyrrolidin-3-amine]", "IC50": "50 to 100"}
{"smiles": "CN(C)C[C@H]1CN(c2ccc3c(c2)Cn2cc(-c4ccc(C#N)cc4)cc2-c2nncn2-3)C[C@@H]1O", "note": "(racemic) [Compound 74, 4-(7-(trans-3-((dimethylamino)methyl)-4-hydroxypyrrolidin-1-yl)-9H-benzo[e]pyrrolo[1,2-a][1,2,4]triazolo[3,4-c][1,4]diazepin-12-yl)benzonitrile]", "IC50": "< 50"}
{"smiles": "CNCC1CCN(c2ccc3c(c2)Cn2cc(-c4ccc(F)cc4)cc2-c2nnnn2-3)C1", "note": "(centres unmarked) [Compound 388, 1-(1-(12-(4-fluorophenyl)-9H-benzo[e]pyrrolo[1,2-a]tetrazolo[5,1-c][1,4]diazepin-7-yl)pyrrolidin-3-yl)-N-methylmethanamine]", "IC50": "< 50"}
{"smiles": "CN(C)C[C@H]1CN(c2ccc3c(n2)Cn2cc(-c4ccc(C#N)cc4)cc2-c2nccn2-3)C[C@@H]1O", "note": "[Compound 306, 4-(7-((3S,4R)-3-((dimethylamino)methyl)-4-hydroxypyrrolidin-1-yl)-9H-imidazo[2,1-c]pyrido[3,2-e]pyrrolo[1,2-a][1,4]diazepin-12-yl)benzonitrile]", "IC50": "< 50"}
{"smiles": "CNC[C@@H]1CCN(c2ccc3c(c2)Cn2cc(-c4ccc(C#N)cc4)cc2-c2ncnn2-3)C1", "note": "[Compound 262, (S)-4-(7-(3-((methylamino)methyl)pyrrolidin-1-yl)-9H-benzo[e]pyrrolo[1,2-a][1,2,4]triazolo[5,1-c][1,4]diazepin-12-yl)benzonitrile]", "IC50": "< 50"}
{"smiles": "CN(C)CC[C@H]1CN(c2ccc3c(c2)Cn2cc(-c4ccc(F)cc4)cc2-c2nccn2-3)C[C@@H]1O", "note": "(relative stereo) [Compound 494, Trans-4-(2-(dimethylamino)ethyl)-1-(12-(4-fluorophenyl)-9H-benzo[e]imidazo[2,1-c]pyrrolo[1,2-a][1,4]diazepin-7-yl)pyrrolidin-3-ol]", "IC50": "< 50"}
{"smiles": "CN(C)[C@@H]1CN(c2ccc3c(c2)Cn2cc(-c4ccc(F)cc4)cc2-c2nccn2-3)C[C@H]1CO", "note": "(relative stereo) [Compound 490, ((Trans)-4-(dimethylamino)-1-(12-(4-fluorophenyl)-9H-benzo[e]imidazo[2,1-c]pyrrolo[1,2-a][1,4]diazepin-7-yl)pyrrolidin-3-yl)methanol]", "IC50": "< 50"}
{"smiles": "N#Cc1ccc(-c2cc3n(c2)Cc2nc(N4CCC5(CNC5)C4)ccc2-n2ccnc2-3)cc1", "note": "[Compound 310, 4-(7-(2,6-diazaspiro[3.4]octan-6-yl)-9H-imidazo[2,1-c]pyrido[3,2-e]pyrrolo[1,2-a][1,4]diazepin-12-yl)benzonitrile]", "IC50": "< 50"}
{"smiles": "CN(C)C[C@@H]1CCN(c2ccc3c(c2)Cn2c(cc(-c4ccc(C#N)cc4)c2Cl)-c2nncn2-3)C1", "note": "[Compound 170, (S)-4-(11-chloro-7-(3-((dimethylamino)methyl)pyrrolidin-1-yl)-9H-benzo[e]pyrrolo[1,2-a] [1,2,4]triazolo[3,4-c][1,4]diazepin-12-yl)benzonitrile]", "IC50": "50 to 100"}
{"smiles": "CN(C)C[C@H]1CN(c2ccc3c(c2)Cn2cc(-c4ccc(F)cc4)cc2-c2ncnn2-3)C[C@H]1O", "note": "[Compound 415, (3S,4S)-4-((dimethylamino)methyl)-1-(12-(4-fluorophenyl)-9H-benzo[e]pyrrolo[1,2-a][1,2,4]triazolo[5,1-c][1,4]diazepin-7-yl)pyrrolidin-3-ol]", "IC50": "100 to 200"}
